The record followed here is patent US20240025887A1, “THIENYL AND CYCLOALKYL AMINOPYRIMIDINE COMPOUNDS AS INHIBITORS OF NUAK KINASES, COMPOSITIONS AND USES THEREOF” (Ontario Institute for Cancer Research (OICR), priority 2021, published 2024).

The term IC50 denotes the point on the concentration scale where inhibition reaches its midpoint.

What all share (type): biochemical
In one test the target is T1, NUAK2 (h) (Homo sapiens, UniProt Q9H093).
T1 construct: This assay was done radiometrically using full-length, recombinant enzyme; purchased Eurofins
T1 sequence (Q9H093 1-628): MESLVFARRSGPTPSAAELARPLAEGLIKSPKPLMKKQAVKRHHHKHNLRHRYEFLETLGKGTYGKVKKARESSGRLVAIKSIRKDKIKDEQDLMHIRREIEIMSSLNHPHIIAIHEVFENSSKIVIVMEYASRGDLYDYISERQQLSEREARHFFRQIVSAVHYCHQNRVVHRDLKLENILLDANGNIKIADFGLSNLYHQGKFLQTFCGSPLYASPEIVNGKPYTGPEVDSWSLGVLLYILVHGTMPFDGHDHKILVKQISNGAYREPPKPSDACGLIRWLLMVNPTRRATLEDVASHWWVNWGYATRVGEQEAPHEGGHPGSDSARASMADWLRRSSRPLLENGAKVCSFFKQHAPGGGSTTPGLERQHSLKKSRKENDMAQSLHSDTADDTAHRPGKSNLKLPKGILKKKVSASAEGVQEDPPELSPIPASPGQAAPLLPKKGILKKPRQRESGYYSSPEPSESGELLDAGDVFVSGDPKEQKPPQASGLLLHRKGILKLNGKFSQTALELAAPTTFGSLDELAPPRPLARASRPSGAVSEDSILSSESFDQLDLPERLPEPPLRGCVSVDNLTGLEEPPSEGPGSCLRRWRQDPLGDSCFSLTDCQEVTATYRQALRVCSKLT
The experiment in a line: NUAK2 enzymatic assay (radiometric, Eurofins). The note with it: radiometric, full-length recombinant enzyme. Summed up: (§1)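 Radiometric assay with full-length recombinant NUAK2 in 8 mM MOPS pH 7.0, 0.2 mM EDTA, 10 mM magnesium acetate, 300 μM peptide substrate and [33P]-ATP, 40 min at room temperature. Phosphoric acid stop, filter capture, scintillation counting. Aurora A and NUAK1 used as counter screens.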

A further test addresses T2, NUAK1 (Homo sapiens, UniProt O60285).
T2 sequence (O60285 1-661): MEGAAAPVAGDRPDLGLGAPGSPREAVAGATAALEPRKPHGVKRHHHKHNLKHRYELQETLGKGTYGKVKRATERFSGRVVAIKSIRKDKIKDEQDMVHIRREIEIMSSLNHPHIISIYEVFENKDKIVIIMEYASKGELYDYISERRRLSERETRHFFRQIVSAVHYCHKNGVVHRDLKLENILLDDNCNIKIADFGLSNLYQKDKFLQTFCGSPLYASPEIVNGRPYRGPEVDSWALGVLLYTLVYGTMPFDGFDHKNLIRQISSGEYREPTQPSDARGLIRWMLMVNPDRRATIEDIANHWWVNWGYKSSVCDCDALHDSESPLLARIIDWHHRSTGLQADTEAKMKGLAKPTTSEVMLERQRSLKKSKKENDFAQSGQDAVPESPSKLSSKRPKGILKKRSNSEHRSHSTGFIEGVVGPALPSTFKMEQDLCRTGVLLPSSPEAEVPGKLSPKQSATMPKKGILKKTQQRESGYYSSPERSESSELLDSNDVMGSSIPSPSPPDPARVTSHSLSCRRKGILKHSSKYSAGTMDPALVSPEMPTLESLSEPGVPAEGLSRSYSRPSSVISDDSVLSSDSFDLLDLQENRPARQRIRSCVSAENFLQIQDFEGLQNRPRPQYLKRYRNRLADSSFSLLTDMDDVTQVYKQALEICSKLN
The test can be described thus: NUAK1 counter screen. An outline of the steps:
as §1

The target in the next test is T3, Aurora A (Homo sapiens, UniProt O14965).
T3 sequence (O14965 1-403): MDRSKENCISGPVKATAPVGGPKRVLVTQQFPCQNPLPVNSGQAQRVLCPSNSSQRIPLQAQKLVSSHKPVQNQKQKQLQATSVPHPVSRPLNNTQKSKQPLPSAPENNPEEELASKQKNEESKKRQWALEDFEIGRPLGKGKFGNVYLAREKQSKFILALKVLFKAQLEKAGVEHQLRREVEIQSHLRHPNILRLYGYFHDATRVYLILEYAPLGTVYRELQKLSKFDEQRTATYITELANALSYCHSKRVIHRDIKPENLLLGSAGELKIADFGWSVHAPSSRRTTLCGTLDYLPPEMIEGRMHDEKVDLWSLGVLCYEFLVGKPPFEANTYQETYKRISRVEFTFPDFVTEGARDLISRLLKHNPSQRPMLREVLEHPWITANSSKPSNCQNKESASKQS
The experiment in a line: Aurora A counter screen. The note with it: read-out: AUR-A (IC50). An outline of the steps:
as §1
For orientation: The purpose of a counterscreen is to sort out artefacts and off-target activity.

`COCCN1CCN(c2ccc(Nc3ncc(Cl)c(Nc4ccsc4C(N)=O)n3)c(OC(F)F)c2)CC1` [Compound I-50, 3-((5-chloro-2-((2-(difluoromethoxy)-4-(4-(2-methoxyethyl)piperazin-1-yl)phenyl)amino)pyrimidin-4-yl)amino)thiophene-2-carboxamide]: the IC50 at NUAK2 (h), against NUAK1 and on Aurora A was 11 to 100 nM throughout.
In the case of `CN1CCN(C2CCN(c3ccc(Nc4ncc(Cl)c(Nc5cscc5C(N)=O)n4)c(OC(F)F)c3)CC2)CC1` [Compound I-51, 4-((5-chloro-2-((2-(difluoromethoxy)-4-(4-(4-methylpiperazin-1-yl)piperidin-1-yl)phenyl)amino)pyrimidin-4-yl)amino)thiophene-3-carboxamide], the IC50 at NUAK2 (h) is 0.1 to 10 nM; against NUAK1, 0.1 to 10 nM; at Aurora A, 11 to 100 nM.
As for `CN1CCC2(CC1)CCN(c1ccc(Nc3ncc(Cl)c(Nc4ccsc4C(N)=O)n3)c(OC(F)F)c1)C2` [Compound I-53, 3-((5-chloro-2-((2-(difluoromethoxy)-4-(8-methyl-2,8-diazaspiro[4.5]decan-2-yl)phenyl)amino)pyrimidin-4-yl)amino)thiophene-2-carboxamide], the results for the IC50 on NUAK2 (h), at NUAK1 and at Aurora A were 11 to 100 nM, 11 to 100 nM and 101 to 1000 nM, respectively.
Turning to `CN1CCC2(CC1)CCN(c1ccc(Nc3ncc(Cl)c(Nc4ccsc4C(N)=O)n3)c(OC(F)F)c1)CC2` [Compound I-54, 3-((5-chloro-2-((2-(difluoromethoxy)-4-(9-methyl-3,9-diazaspiro[5.5]undecan-3-yl)phenyl)amino)pyrimidin-4-yl)amino)thiophene-2-carboxamide], the results for the IC50 at NUAK2 (h), against NUAK1 and at Aurora A were 11 to 100 nM, 11 to 100 nM and 101 to 1000 nM, respectively.
As to `CN(C)[C@@H]1CCN(c2ccc(Nc3ncc(Cl)c(Nc4ccsc4C(N)=O)n3)c(OC(F)F)c2)C1` [Compound I-55, (R)-3-((5-chloro-2-((2-(difluoromethoxy)-4-(3-(dimethylamino)pyrrolidin-1-yl)phenyl)amino)pyrimidin-4-yl)amino)thiophene-2-carboxamide], the IC50 on NUAK2 (h) lay in the range of 11 to 100 nM; against NUAK1 it was 0.1 to 10 nM; on Aurora A it was 101 to 1000 nM.
Take `CN(C)[C@H]1CCN(c2ccc(Nc3ncc(Cl)c(Nc4ccsc4C(N)=O)n3)c(OC(F)F)c2)C1` [Compound I-56, (S)-3-((5-chloro-2-((2-(difluoromethoxy)-4-(3-(dimethylamino)pyrrolidin-1-yl)phenyl)amino)pyrimidin-4-yl)amino)thiophene-2-carboxamide]: the IC50 on NUAK2 (h) is 11 to 100 nM; at NUAK1, 0.1 to 10 nM; at Aurora A it was 101 to 1000 nM.
Consider `CN1C[C@@H]2CN(c3ccc(Nc4ncc(Cl)c(Nc5ccsc5C(N)=O)n4)c(OC(F)F)c3)C[C@@H]2C1` [Compound I-57, 3-((5-chloro-2-((2-(difluoromethoxy)-4-((3aR,6aS)-5-methylhexahydropyrrolo[3,4-c]pyrrol-2(1H)-yl)phenyl)amino)pyrimidin-4-yl)amino)thiophene-2-carboxamide], for which the IC50 on NUAK2 (h) lay in the range of 0.1 to 10 nM; against NUAK1, 0.1 to 10 nM; at Aurora A, 101 to 1000 nM.
Consider `NC(=O)c1sccc1Nc1nc(Nc2ccc(N3CCC(N4CCCCC4)CC3)cc2OC(F)F)ncc1Cl` [Compound I-58, 3-((2-((4-([1,4′-bipiperidin]-1′-yl)-2-(difluoromethoxy)phenyl)amino)-5-chloropyrimidin-4-yl)amino)thiophene-2-carboxamide], for which the 50% inhibitory concentration (IC50) at NUAK2 (h) lay within 0.1 to 10 nM; against NUAK1 it was 0.1 to 10 nM; at Aurora A, 101 to 1000 nM.
In the case of `NC(=O)c1sccc1Nc1nc(Nc2ccc(N3CCC(O)CC3)cc2OC(F)F)ncc1Cl` [Compound I-60, 3-((5-chloro-2-((2-(difluoromethoxy)-4-(4-hydroxypiperidin-1-yl)phenyl)amino)pyrimidin-4-yl)amino)thiophene-2-carboxamide], the IC50 at NUAK2 (h), against NUAK1 and on Aurora A was 11 to 100 nM throughout.
Regarding `CCN1CCN(C2CCN(c3ccc(Nc4ncc(Cl)c(Nc5ccsc5C(N)=O)n4)c(OC(F)F)c3)CC2)CC1` [Compound I-61, 3-((5-chloro-2-((2-(difluoromethoxy)-4-(4-(4-ethylpiperazin-1-yl)piperidin-1-yl)phenyl)amino)pyrimidin-4-yl)amino)thiophene-2-carboxamide], the IC50 at NUAK2 (h), against NUAK1 and at Aurora A was 11 to 100 nM throughout.
For the compound `CC(C)N1CCN(C2CCN(c3ccc(Nc4ncc(Cl)c(Nc5ccsc5C(N)=O)n4)c(OC(F)F)c3)CC2)CC1` [Compound I-62, 3-((5-chloro-2-((2-(difluoromethoxy)-4-(4-(4-isopropylpiperazin-1-yl)piperidin-1-yl)phenyl)amino)pyrimidin-4-yl)amino)thiophene-2-carboxamide], the figures for the IC50 at NUAK2 (h), at NUAK1 and at Aurora A were 11 to 100 nM, 11 to 100 nM and 101 to 1000 nM, respectively.
Take `CC(C)(C)N1CCN(C2CCN(c3ccc(Nc4ncc(Cl)c(Nc5ccsc5C(N)=O)n4)c(OC(F)F)c3)CC2)CC1` [Compound I-63, 3-((2-((4-(4-(4-(tert-butyl)piperazin-1-yl)piperidin-1-yl)-2-(difluoromethoxy)phenyl)amino)-5-chloropyrimidin-4-yl)amino)thiophene-2-carboxamide]: the IC50 on NUAK2 (h) lay in the range of 11 to 100 nM; against NUAK1, 0.1 to 10 nM; at Aurora A, 101 to 1000 nM.
With `C[C@@H]1CN(C2CCN(c3ccc(Nc4ncc(Cl)c(Nc5ccsc5C(N)=O)n4)c(OC(F)F)c3)CC2)C[C@H](C)N1C` [Compound I-64, 3-((5-chloro-2-((2-(difluoromethoxy)-4-(4-((3R,5S)-3,4,5-trimethylpiperazin-1-yl)piperidin-1-yl)phenyl)amino)pyrimidin-4-yl)amino)thiophene-2-carboxamide], the IC50 at NUAK2 (h) lay in the range of 0.1 to 10 nM; on NUAK1, 11 to 100 nM; at Aurora A, 101 to 1000 nM.
Consider `C[C@H]1CN(C2CCN(c3ccc(Nc4ncc(Cl)c(Nc5ccsc5C(N)=O)n4)c(OC(F)F)c3)CC2)CCN1C` [Compound I-65, (S)-3-((5-chloro-2-((2-(difluoromethoxy)-4-(4-(3,4-dimethylpiperazin-1-yl)piperidin-1-yl)phenyl)amino)pyrimidin-4-yl)amino)thiophene-2-carboxamide], for which the results for the 50% inhibitory concentration (IC50) on NUAK2 (h), on NUAK1 and on Aurora A were 11 to 100 nM, 11 to 100 nM and 101 to 1000 nM, respectively.
For `CN1CCC(N(C)c2ccc(Nc3ncc(Cl)c(Nc4ccsc4C(N)=O)n3)c(OC(F)F)c2)CC1` [Compound I-66, 3-((5-chloro-2-((2-(difluoromethoxy)-4-(methyl(1-methylpiperidin-4-yl)amino)phenyl)amino)pyrimidin-4-yl)amino)thiophene-2-carboxamide], the IC50 was in the range of 11 to 100 nM at NUAK2 (h), 11 to 100 nM on NUAK1 and 101 to 1000 nM at Aurora A.
For the compound `C[C@@H]1CN(C2CCN(c3ccc(Nc4ncc(C(F)(F)F)c(Nc5ccsc5C(N)=O)n4)c(OC(F)F)c3)CC2)C[C@H](C)N1C` [Compound I-67, 3-((2-((2-(difluoromethoxy)-4-(4-((3R,5S)-3,4,5-trimethylpiperazin-1-yl)piperidin-1-yl)phenyl)amino)-5-(trifluoromethyl)pyrimidin-4-yl)amino)thiophene-2-carboxamide], the values for the IC50 at NUAK2 (h), against NUAK1 and on Aurora A were 11 to 100 nM, 11 to 100 nM and 101 to 1000 nM, respectively.
